Assays:
HIF-α/pVHL interaction = experiment: Interaction of HIF-1α and pVHL.HA reticulocyte IVTTs, anti-HA co-immunoprecipitation; assay type: biochemical, human; conditions: 100 μM added to the HIF-1α IVTT
Experimental: ^35S-Methionine labelled […] subunits and pVHL.HA were produced separately by IVTT (in vitro transcription and translation) in reticulocyte lysates. IVTTs were performed under different conditions, mixed, and assayed for interaction by anti-HA co-immunoprecipitation. These in vitro assays allowed analysis of the HIFα/pVHL interaction using the recombinant proteins.
Labelled HIF-1α and pVHL.HA were generated separately in reticulocyte lysates (IVTT), in the presence or absence of Co (II), desferrioxamine, or Fe(II). Lysates were mixed in various combinations, and interactions assayed by anti-HA immunoprecipitation.
• 1. G. L. Semenza, Genes Dev 14, 1983-91. (2000). • 2. N. V. Iyer, et al., Genes Dev. 12, 149-162 (1997). • 3. E. Maltepe, J. V. Schmidt, D. Baunoch, C. A. Bradfield, M. C. Simon, Nature 386, 403-407 (1997). • 4. G. L. Wang, B.-H. Jiang, E. A. Rue, G. L. Semenza, Proc. Natl. Acad. Sci. USA 92, 5510-5514 (1995). • 5. S. Salceda, J. Caro, J. Biol. Chem. 272, 22642-22647 (1997). • 6. L. E. Huang, J. Gu, M. Schau, H. F. Bunn, Proc. Natl. Acad. Sci. USA 95, 7987-7992 (1998). • 7. M. S. Wiesener, et al., Blood 92, 2260-2268 (1998). • 8. P. H. Maxwell, et al., Nature 399, 271-275 (1999). • 9. K. Iwai, et al., Proc. Natl. Acad. Sci. USA 96, 12436-12441 (1999). • 10. J. Lisztwan, G. Imbert, C. Wirbelauer, M. Gstaiger, W. Krek, Genes Dev 13, 1822-33 (1999). • 11. M. E. Cockman, et al., J Biol Chem (2000). • 12. M. Ohh, et al., Nat Cell Biol 2, 423-7. (2000). • 13. T. Kamura, et al., Proc Natl Acad Sci USA 97, 10430-5. (2000). • 14. K. Tanimoto, Y. Makino, T. Pereira, L. Poellinger, Embo J 19, 4298-309. (2000). • 15. M. A. Goldberg, S. P. Dunning, H. F. Bunn, Science 242, 1412-1415 (1988). • 16. G. L. Wang, G. L. Semenza, Blood 82, 3610-3615 (1993). • 17. G. L. Semenza, Cell 98, 281-284 (1999). • 18. Hypoxia (<0.1% oxygen) was obtained in a workstation with O2, CO2 and temperature control (Ruskinn Technologies, Leeds, UK). For hypoxic harvest, buffers were preincubated in the chamber overnight. […]

[1] = tested on: HIF-α prolyl-hydroxylase (HIF-PH) of cell extract; experiment: Modifying activity (HIF-PH) of cell extract on HIF substrate (Gal/HIF-1α549-582/VP16 or 19:WT), pVHL capture assay; assay type: biochemical, mammalian; conditions: titration, cell extract
Experimental: The unlabelled HIF-1α substrate was immunopurified on beads, washed, and aliquots incubated under different test conditions in buffer or cell extract. After further washing, the beads were assayed for ability to interact with 35-S labelled pVHL IVTT (21) which was then visualised by fluorography.
The capture of labelled pVHL by different HIF substrates was monitored after exposure to various test conditions.
We went on to test a series of 2-oxoglutarate analogues which act as competitive inhibitors of this class of enzyme (29) for ability to inhibit HIF-PH as assessed by the ability of cell extracts to modify either HIF polypeptide (19:WT) or a HIF fusion protein (Gal/HIF-1α549-582/VP16) so as to promote pVHL capture. […] In one such experiment the effect of N-oxalylglycine on pVHL capture by a biotinylated HIF polypeptides as substrate was monitored. The WT:19 and 19:Pro564Hyp polypeptides described above were used as substrates. […] The effect of dimethyl-oxalyglycine on HIF-1α expression was also studied. HIF-1α immunoblot analysis of extracts of Hep3B and U2OS cells exposed to dimethyl-oxalylgylcine (0, 0.1 or 1.0 mM) for 6 hours was carried out. […]

HIF-1α/pVHL interaction = biological target: T1, HIF-1α/pVHL interaction (Homo sapiens, UniProt P40337); experiment: Polypeptide blocking assay of HIF-1α and pVHL.HA IVTT mixture, anti-HA immunoprecipitation; assay type: binding; conditions: cell extract supplemented with Fe(II)
T1 construct: made in house; host or cells: TNT rabbit reticulocyte lysate (Promega), in vitro transcription/translation
T1 sequence (P40337 whole entry): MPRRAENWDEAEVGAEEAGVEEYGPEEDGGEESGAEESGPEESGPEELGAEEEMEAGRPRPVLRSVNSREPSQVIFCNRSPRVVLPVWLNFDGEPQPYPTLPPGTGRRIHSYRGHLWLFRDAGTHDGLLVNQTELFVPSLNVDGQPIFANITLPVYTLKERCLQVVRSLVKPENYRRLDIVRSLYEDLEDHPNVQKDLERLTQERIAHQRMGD
Experimental: Further studies were performed using synthetic polypeptides as inhibitors of the HIF-1α/pVHL interaction (23). […] Results for a series of polypeptides derived from this domain are summarized in FIG. 1B and implicate a similar minimal interaction domain. […] This polypeptide comprises HIF-1α polypeptide residues 556 to 574 and its ability to block binding following exposure to a variety of direct oxidation conditions was assessed.
We synthesized a polypeptide (HIF-1α residues 556-574), containing a trans-4-hydroxy-S-proline residue at position 564 (19:Pro564Hyp), since the trans-4-hydroxylation is the commonest enzymatic proline oxidation (25). A polypeptide blocking assay was carried out using the 19:Pro564Hyp modified polypeptide and, as a control, the unmodified polypeptide without the trans-4-hydroxylation (19:WT). The 19:WT polypeptide was either incubated with cell extract before the binding assay or was untreated. The 19:Pro564Hyp polypeptide was added to a mixture of HIF-1α and pVHL-HA IVTTs at a concentration of 1, 0.25, 0.05 or 0.01 μM and the cell extract treated or untreated 19:WT polypeptide at a concentration of 0.5 μM. Interaction of HIF-1α with pVHL was then assayed by anti-HA immunoprecipitation. […] A pVHL capture assay was then carried out using biotinylated synthetic polypeptides. The same polypeptides, 19:Pro564Hyp and 19:WT were assessed for the ability to capture wild type or mutant (Pro86His) pVHL. […] In both cases capture was specific for wild type, as opposed to mutant, pVHL.
• 1. G. L. Semenza, Genes Dev 14, 1983-91. (2000). • 2. N. V. Iyer, et al., Genes Dev. 12, 149-162 (1997). • 3. E. Maltepe, J. V. Schmidt, D. Baunoch, C. A. Bradfield, M. C. Simon, Nature 386, 403-407 (1997). • 4. G. L. Wang, B.-H. Jiang, E. A. Rue, G. L. Semenza, Proc. Natl. Acad. Sci. USA 92, 5510-5514 (1995). • 5. S. Salceda, J. Caro, J. Biol. Chem. 272, 22642-22647 (1997). • 6. L. E. Huang, J. Gu, M. Schau, H. F. Bunn, Proc. Natl. Acad. Sci. USA 95, 7987-7992 (1998). • 7. M. S. Wiesener, et al., Blood 92, 2260-2268 (1998). • 8. P. H. Maxwell, et al., Nature 399, 271-275 (1999). • 9. K. Iwai, et al., Proc. Natl. Acad. Sci. USA 96, 12436-12441 (1999). • 10. J. Lisztwan, G. Imbert, C. Wirbelauer, M. Gstaiger, W. Krek, Genes Dev 13, 1822-33 (1999). • 11. M. E. Cockman, et al., J Biol Chem (2000). • 12. M. Ohh, et al., Nat Cell Biol 2, 423-7. (2000). • 13. T. Kamura, et al., Proc Natl Acad Sci USA 97, 10430-5. (2000). • 14. K. Tanimoto, Y. Makino, T. Pereira, L. Poellinger, Embo J 19, 4298-309. (2000). • 15. M. A. Goldberg, S. P. Dunning, H. F. Bunn, Science 242, 1412-1415 (1988). • 16. G. L. Wang, G. L. Semenza, Blood 82, 3610-3615 (1993). • 17. G. L. Semenza, Cell 98, 281-284 (1999). • 18. Hypoxia (<0.1% oxygen) was obtained in a workstation with O2, CO2 and temperature control (Ruskinn Technologies, Leeds, UK). For hypoxic harvest, buffers were preincubated in the chamber overnight. RCC4-VHL.HA, labelling conditions and co-immunoprecipitation assays have been described previously (11); in the current study 12.5 μM MG132 was used for proteasomal inhibition. For standard harvest, the cells were removed from the chamber after hypoxic exposure, prior to cell lysis. Co-immunoprecipitation assays on all lysates were performed at 4° C. under ambient oxygen conditions. […] When programming in hypoxia, reaction mix was preincubated in the workstation for 10 minutes before addition of the DNA template. […]

[2] = tested on: cytoplasmic extract-dependent modification of the 5′ VHL E3 target site; experiment: Peptide competition of cytoplasmic extract-dependent modification of GAL-HIF-1α 344-553, in vitro VHL E3 ubiquitylation; assay type: biochemical, human; conditions: 12.5 μM peptide, RCC4 cytoplasmic extract
Experimental: The E1 activating enzyme used in ubiquitylation assays was either obtained from Affiniti Research (Exeter, UK) or purified from BL21 (DE3) E. coli transfected with plasmid expressing His6-tagged mouse E1. His6-E1 was purified by Ni^2+-agarose affinity chromatography. After dialysis against phosphate buffered saline, glycerol was added to 10% (vol/vol) and 25 ng/μl aliquots stored at −80° C. Human CDC34 recombinant E2 enzyme was from Affiniti Research (Exeter, UK). VHL E3 was obtained by anti-HA immunoprecipitation from stably transfected 7860-VHLHA cell lysates (Iliopoulos et al). GAL-HIF-1α substrate was prepared by anti-GAL immunoprecipitation from [^35S] methionine-labeled TnT rabbit reticulocyte (Promega) translates. Each 40 μl ubiquitylation reaction consisted of 4 μl of 5 mg/ml ubiquitin, 4 μl of 10×ATP regenerating system (20 mM Tris pH7.5, 10 mM ATP, 10 mM magnesium acetate, 300 mM creatine phosphate, 0.5 mg/ml creatine phosphokinase), 2 μl, E1, 3 μl E2, 6 μl VHL E3 immunopurified on protein G sepharose, 6 μl GAL-HIF-1α substrate immunopurified on agarose beads. Reactions were incubated at 30° C. for 2 h with occasional mixing, stopped by the addition of SDS sample buffer and analysed by SDS-PAGE and autoradiography. Cytoplasmic extract-based ubiquitylation assays have been previously described (Cockman).
It has been shown above that the 3′ VHL E3 target site responds to oxygen level via hydroxylation at proline residue 564. This praline residue forms part of a potential motif conserved between the 5′ and 3′ target sites. Mutation of the corresponding proline residue (P402A) in the 5′ target site also results in functional inactivation. It was possible therefore that proline residue 402 was also a target for regulatory hydroxylation, To test this we asked whether polypeptides corresponding to the 3′ VHL E3 target site could interfere with the cytoplasmic extract-dependent modification of the 5′ VHL E3 target site. […]

Compound | capture of HIF-1α by pVHL.HA (HIF-α/pVHL interaction) | Fe(II) supplementation giving full activation of modifying activity [1] [µM] | blocking of HIF-1α/pVHL interaction by polypeptide after exposure to cell extract (HIF-1α/pVHL interaction) | competition of cytoplasmic extract effect on VHL-dependent ubiquitylation of GAL 344-553 [2]
[Cl][Fe][Cl] [Fe(II), ferrous chloride, reference compound] | greatly enhanced capture | 5 |  | 
Pro564Gly: HIF-1α 556-574 polypeptide where the critical proline is mutated to glycine (DLDLEMLAGYIPMDDDFQL; UniProt Q16665 556-574, looked up, fragment P564G) |  |  | did not block | no effect

Source: patent publication US9844546B2, “Antibody against human HIF hydroxylase” (OXFORD UNIVERSITY INNOVATION LIMITED, priority 2001, dated 2017)
